Experimental findings from patent US4554367A, “Phosphonium organohalogenostannates-IV” (priority 1982, dated 1985) are described below.

Some results are limits rather than exact numbers.

Test [1] deals with Venturia inaequalis. Briefly: Residual protective action against Venturia inaequalis on apple shoots. The test is classed as in vivo. The note with it: 0.02% of active substance, 15 days after infection. As for the experimental part: Residual protective action against Venturia inaequalis on apple shoots
Apple cuttings with fresh shoots 10-20 cm long were sprayed with a spray liquor (0.02% of active substance) prepared from a wettable powder of the active substance. After 24 hours, the treated plants were infected with a conidia suspension of the fungus. The plants were then incubated at 90-100% relative atmospheric humidity for 5 days and were placed in a greenhouse at 20°-24° C. for 10 further days. The scab attack was evaluated 15 days after the infection. Compounds nos. 18, 5 and 9 and others inhibited the disease attack to less than 10%.

Test [2] relates to Alkaligenes denitrificans. Put plainly: MIC against bacteria, strain E. The format is cell-based. The note with it: 24 h, 30° C., tested at 100 or 300 mg/liter. As for the experimental part:
(§1) Determination of the minimum inhibitory concentration (MIC) against bacteria
(§2) ONCs (cultures incubated overnight) of the bacteria strains A-F grown in Caso-Peptone broth (Merck) are each diluted […] in saline. An amount of the suspension is introduced into Caso-Peptone broth such that the bacteria are again diluted 1:1,000. The cultures are treated with 100 or 300 mg/liter of the phosphonium stannates shown in Table B. After incubation at 30° C. in a shaking water bath for 24 hours, the cultures are evaluated on the basis of cloudiness. The MIC is the concentration at which the broth is not clouded by bacterial growth.

In test [3] the test system is Artemia salina. Briefly: Action against Artemia salina. The format is in vivo. Set-up: key: 0: nauplii not affected; 1: slight change; 1-2: nauplii affected; 2: nauplii severely affected; 2-3: almost all nauplii dead; 3: all nauplii dead. An excerpt: Determination of the action against Artemia salina
The commercially available eggs are caused to hatch under powerful aeration. […]

Test [4] relates to Proteus vulgaris. Briefly: MIC against bacteria, strain A. The format is cell-based. The note with it: 24 h, 30° C., tested at 100 or 300 mg/liter. As for the experimental part: as §1, §2
Test [5] has as its system Alternaria alternata. Briefly: MIC against fungi, strain J. The test is classed as cell-based. As to conditions: malt extract agar. As for the experimental part:
(§3) Determination of the minimum inhibitory concentration (MIC) against fungi
(§4) The investigation is carried out in malt extract agar (Merck) by the known agar incorporation test using the fungi
(§5) For inhibition, the various compounds are in each case added in amounts such that concentrations of […] results in the agar. The concentrations (mg/liter) required for inhibition of the growth of the fungi (starting from traces of fungi dripped on) are illustrated in Table D.

In test [6] the test system is Pseudomonas aeruginosa. Briefly: MIC against bacteria, strain B. The note with it: 24 h, 30° C., tested at 100 or 300 mg/liter. The format is cell-based. As for the experimental part: as §1, §2
The subject of test [7] is Aspergillus niger. Put plainly: MIC against fungi, strain G. The test is classed as cell-based. As to conditions: malt extract agar. As for the experimental part: as §3, §4
For test [8], the system named is Aureobasidium pullulans. Put plainly: MIC against fungi, strain N. The format is cell-based. As to conditions: malt extract agar. As for the experimental part: as §3, §4
N Aureobasidium pullulans
as §5

Test [9] concerns Penicillium funiculosum. Briefly: MIC against fungi, strain I. The test is classed as cell-based. The note with it: malt extract agar. As for the experimental part: as §3, §4
I Penicillium funiculosum
as §5

The subject of test [10] is Enterobacter aerogenes. Put plainly: MIC against bacteria, strain C. As to conditions: 24 h, 30° C., tested at 100 or 300 mg/liter. The test is classed as cell-based. As for the experimental part:
as §1, §2

The subject of test [11] is Aspergillus phoenicia. Put plainly: MIC against fungi, strain H. The test is classed as cell-based. The note with it: malt extract agar. As for the experimental part:
as §3, §4, §5

The test system of test [12] is Bacillus subtilis. Put plainly: MIC against bacteria, strain F. The format is cell-based. The note with it: 24 h, 30° C., tested at 100 or 300 mg/liter. As for the experimental part: as §1, §2
Test [13] relates to Enteromorpha intestinalis. Briefly: Action against Enteromorpha intestinalis. The test is classed as cell-based. As for the experimental part: (b) Enteromorpha intestinalis
The action against the green alga Enteromorpha most important in sea water fouling is investigated in sterile-filtered sea water containing Erd-Schreiber solution. The solution is composed of a nutrient extract, phosphate and nitrate. Incubation of the Enteromorpha intestinalis takes place in a light thermostat at 18° C. under a 14 hours light/10 hours dark cycle.
The algae grown in this manner are exposed for a short time (4 hours), in sea water, to the products to be investigated. The minimum killing concentration (MKC) is determined by removing the algae from the sea water containing a certain amount of algicide at the end of the period of action, washing them and investigating them for growth or destruction after renewed incubation in fresh sea water for 6 to 8 weeks.
The minimum killing concentration (MKC) is the amount of substance required to harm the alga within a certain period of time to the extent that it can no longer recover in fresh sea water and dies off.
To determine the inhibitory concentration (MIC), the alga is kept in sea water containing biocide throughout the entire duration of the experiment (concentration tested: 0.1 and 0.5 mg/liter).

For test [14], the system named is Chaetomium globosum. Briefly: MIC against fungi, strain O. The note with it: malt extract agar. The format is cell-based. As for the experimental part:
as §3, §4, §5

For test [15], the system named is Serratia marcenscens. Briefly: MIC against bacteria, strain D. The test is classed as cell-based. The note with it: 24 h, 30° C., tested at 100 or 300 mg/liter. As for the experimental part:
as §1, §2

Test [16] deals with Candida albicans. Put plainly: MIC against fungi, strain L. As to conditions: malt extract agar. The test is classed as cell-based. As for the experimental part:
as §3, §4, §5

Test [17] has as its system Cladosporium cladosporioides. Put plainly: MIC against fungi, strain K. The note with it: malt extract agar. The format is cell-based. As for the experimental part: as §3, §4
K Cladosporium cladosporioides
as §5

In test [18] the test system is Chlorella vulgaris. Put plainly: Action against Chlorella vulgaris. The note with it: 3 mg/liter. The arrangement: key to Growth in the medium: 1: no growth in the medium, 3 ppm have a growthinhibiting action; key to Growth on the agar: 2: no growth on the agar, 3 ppm have destroyed the algae within 6 hours. The test is classed as cell-based. As for the experimental part:
Determination of the action against algae
A Chlorella vulgaris culture grown for 14 days in algae nutrient medium is diluted 1:200 in algae nutrient medium. Each of the compounds listed in Table E is then added such that a concentration of 3 mg/liter results. After incubation for 6 hours, 10 μl are in each case withdrawn and dripped onto algae agar in order to determine the destructive action.

The subject of test [19] is Endomyces geotrichum. Briefly: MIC against fungi, strain M. The test is classed as cell-based. As to conditions: malt extract agar. As for the experimental part:
as §3, §4, §5

Regarding `CCCCCCCCCCCCCC[P+](CCCC)(CCCC)CCCC.[Cl][Sn-]([Cl])([CH]1CCCCC1)([CH]1CCCCC1)[CH]1CCCCC1` [Example 18, tri-n-bytyl-n-tetradecyl-phosphonium tricyclohexyldichlorostannate], in test [1], the “disease (scab) attack (inhibited to less than)” value was “less than 10%”.
As usually defined, the MIC is the lowest concentration that inhibits growth of the organism. On to `CCCCCCCCCCCCCC[P+](CCCC)(CCCC)CCCC.[CH3][Sn-]([CH3])([Cl])([Cl])[Cl]` [Example 20], for which the minimum inhibitory concentration (MIC) is 100 µg/mL in test [2]; 100 µg/mL in test [4]; 100 µg/mL in test [6]; 100 µg/mL in [10]; 100 µg/mL in [12]; > 0.5 µg/mL in test [13] (kept in sea water containing biocide throughout, tested 0.1 and 0.5 mg/liter). For the same molecule, in test [15], the MIC is 100 µg/mL. The “Action against Artemia salina” value was 0 in test [3] (0.25 mg/liter, 6 hours); 1-2 in [3] (0.25 mg/liter, 24 hours); 2-3 in test [3] (0.25 mg/liter, 48 hours); 1 in test [3] (0.5 mg/liter, 6 hours); 2 in test [3] (0.5 mg/liter, 24 hours); 3 in test [3] (0.5 mg/liter, 48 hours). The “Action against Artemia salina” value is given as 2 in test [3] (1 mg/liter, 6 hours); 2-3 in [3] (1 mg/liter, 24 hours); 3 in test [3] (1 mg/liter, 48 hours); 1-2 in test [3] (2.5 mg/liter, 6 hours); 3 in test [3] (2.5 mg/liter, 24 hours); 3 in [3] (2.5 mg/liter, 48 hours). Further, the MIC against fungi in test [5] was 50 µg/mL; in test [7], 50 µg/mL; in [8], 10 µg/mL; in test [9], 10 µg/mL; in [11] it was 50 µg/mL; in test [14], 10 µg/mL. Also, the MIC against fungi in test [16], in test [17] and in test [19] was 10 µg/mL throughout. Further, the “Destruction 5 mg/liter” value in test [13] (5 mg/liter, 4 hours exposure in sea water, re-incubation 6 to 8 weeks) was “yes”. Also, the “Growth on the agar” value in [18] (6 hours exposure (algae-destruction action)) is listed as 2. Also, the “Growth in the medium” value in [18] (14 days (inhibition of growth)) worked out at 1.
